Here are results for nine compounds from publication PMC9516332 (Frontiers in Oncology, 2022).

What all share (test): Kinase panel profiling at 1 µmol/L (MSA or IMAP), percentage inhibition
Format in all cases: biochemical

For experiment [1], the target named is panel of 255 wild-type kinases (Homo sapiens, UniProt Q7KZI7). The note with it: MARK2; 1 µmol/L single concentration; read-out: %-inhibition, MARK2.
The target of experiment [2] is panel of 255 wild-type kinases (Homo sapiens, UniProt Q9H1R3). To be noted: kinase skMLCK; 1 µmol/L single concentration; read-out: %-inhibition at 1 µmol/L, skMLCK.
For experiment [3], the target named is panel of 255 wild-type kinases (Homo sapiens, UniProt P07949). The note with it: kinase RET; 1 µmol/L single concentration; read-out: %-inhibition at 1 µmol/L, RET.
Experiment [4] addresses T1, panel of 255 wild-type kinases (Homo sapiens, UniProt P51817).
T1 sequence (P51817 1-358): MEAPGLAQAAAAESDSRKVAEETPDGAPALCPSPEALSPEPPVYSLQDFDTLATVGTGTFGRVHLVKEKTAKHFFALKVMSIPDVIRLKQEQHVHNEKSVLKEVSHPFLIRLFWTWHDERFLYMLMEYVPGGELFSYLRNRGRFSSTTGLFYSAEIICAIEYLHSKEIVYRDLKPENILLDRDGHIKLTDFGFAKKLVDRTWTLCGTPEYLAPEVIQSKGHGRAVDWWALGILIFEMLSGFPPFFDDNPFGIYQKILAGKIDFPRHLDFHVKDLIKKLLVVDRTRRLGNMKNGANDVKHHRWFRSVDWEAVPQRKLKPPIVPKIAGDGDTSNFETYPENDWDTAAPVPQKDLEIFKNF
The note with it: kinase PRKX; 1 µmol/L single concentration; read-out: %-inhibition at 1 µmol/L, PRKX.

Experiment [5] has as its target T2, panel of 255 wild-type kinases (Homo sapiens, UniProt Q9HBY8).
T2 sequence (Q9HBY8 1-367): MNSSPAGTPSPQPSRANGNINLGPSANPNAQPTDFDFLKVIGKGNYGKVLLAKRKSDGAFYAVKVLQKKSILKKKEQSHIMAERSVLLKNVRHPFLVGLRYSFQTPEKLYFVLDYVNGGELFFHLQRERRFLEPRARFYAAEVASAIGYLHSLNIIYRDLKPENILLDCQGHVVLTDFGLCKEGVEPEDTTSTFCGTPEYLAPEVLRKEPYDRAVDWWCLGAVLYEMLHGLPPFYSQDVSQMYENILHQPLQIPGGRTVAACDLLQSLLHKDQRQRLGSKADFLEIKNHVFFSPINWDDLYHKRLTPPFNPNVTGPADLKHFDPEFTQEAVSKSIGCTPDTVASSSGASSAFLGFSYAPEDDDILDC
The note with it: kinase SGK2; 1 µmol/L single concentration; read-out: %-inhibition at 1 µmol/L, SGK2.

The target in experiment [6] is panel of 255 wild-type kinases (Homo sapiens, UniProt Q15119). To be noted: kinase PDHK2; 1 µmol/L single concentration; read-out: %-inhibition at 1 µmol/L, PDHK2.
The target of experiment [7] is T3, panel of 255 wild-type kinases (Homo sapiens, UniProt P42681).
T3 sequence (P42681 1-527): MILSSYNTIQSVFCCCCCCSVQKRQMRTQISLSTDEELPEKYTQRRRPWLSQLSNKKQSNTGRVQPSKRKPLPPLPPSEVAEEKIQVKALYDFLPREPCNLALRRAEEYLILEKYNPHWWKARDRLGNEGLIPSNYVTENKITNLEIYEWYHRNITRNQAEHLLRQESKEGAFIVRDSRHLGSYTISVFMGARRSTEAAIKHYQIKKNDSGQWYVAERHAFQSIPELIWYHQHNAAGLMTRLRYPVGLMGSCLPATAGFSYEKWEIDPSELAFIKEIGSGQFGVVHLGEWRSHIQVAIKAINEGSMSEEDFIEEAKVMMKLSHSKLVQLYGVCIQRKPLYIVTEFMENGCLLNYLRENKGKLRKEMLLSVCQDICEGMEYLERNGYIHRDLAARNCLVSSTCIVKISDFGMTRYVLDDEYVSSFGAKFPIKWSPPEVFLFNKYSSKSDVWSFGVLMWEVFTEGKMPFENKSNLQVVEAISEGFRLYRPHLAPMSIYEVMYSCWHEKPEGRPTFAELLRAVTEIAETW
The note with it: kinase TXK; 1 µmol/L single concentration; read-out: %-inhibition at 1 µmol/L, TXK.

The target of experiment [8] is panel of 255 wild-type kinases (Homo sapiens, UniProt P24723). The note with it: kinase PKCη; 1 µmol/L single concentration; read-out: %-inhibition at 1 µmol/L, PKCη.
In experiment [9] the target is T4, panel of 255 wild-type kinases (Homo sapiens, UniProt Q13470).
T4 sequence (Q13470 1-666): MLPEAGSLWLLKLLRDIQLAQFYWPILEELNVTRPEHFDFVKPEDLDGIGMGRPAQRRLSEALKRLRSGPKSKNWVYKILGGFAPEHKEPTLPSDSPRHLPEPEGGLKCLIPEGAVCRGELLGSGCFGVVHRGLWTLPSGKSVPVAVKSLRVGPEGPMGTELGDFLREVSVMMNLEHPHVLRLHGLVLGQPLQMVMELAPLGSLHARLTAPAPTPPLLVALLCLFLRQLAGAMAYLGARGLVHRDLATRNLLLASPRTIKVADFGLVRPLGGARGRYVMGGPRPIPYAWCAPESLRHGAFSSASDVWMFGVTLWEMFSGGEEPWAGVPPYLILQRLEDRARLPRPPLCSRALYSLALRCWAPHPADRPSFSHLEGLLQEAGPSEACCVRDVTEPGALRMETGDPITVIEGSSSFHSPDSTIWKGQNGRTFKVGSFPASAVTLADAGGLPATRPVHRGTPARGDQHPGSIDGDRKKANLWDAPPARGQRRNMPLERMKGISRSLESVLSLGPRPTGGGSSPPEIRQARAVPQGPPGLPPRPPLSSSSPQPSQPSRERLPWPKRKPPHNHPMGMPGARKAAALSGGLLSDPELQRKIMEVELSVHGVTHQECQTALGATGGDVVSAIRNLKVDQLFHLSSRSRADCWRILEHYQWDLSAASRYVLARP
To be noted: kinase TNK1; 1 µmol/L single concentration; read-out: %-inhibition at 1 µmol/L, TNK1.

The structures appear in SMILES notation.

Turning to `C[C@H]1Oc2cc(cnc2N)-c2c(nn(C)c2C#N)CN(C)C(=O)c2ccc(F)cc21` [lorlatinib], the inhibition at 1 µM is 11% in experiment [1]; -0.456% in experiment [2]; 10% in experiment [3]; 3.38% in [4]; 4.34% in [5]; 1.88% in experiment [6]. For the same compound, the inhibition at 1 µM in [7] was determined as 3.52%; in experiment [8], 0.817%; in experiment [9], 97%.

Take `CCN1C(=O)N(c2c(F)c(OC)cc(OC)c2F)Cc2cnc3[nH]c(CN4CCOCC4)cc3c21` [pemigatinib]: the inhibition at 1 µM was 50% in experiment [1]; 30% in experiment [2]; 55% in experiment [3]; -1.75% in [4]; 8% in [5]; 3.53% in [6]. In addition, the inhibition at 1 µM is -0.753% in experiment [7], 5% in experiment [8] and 5% in experiment [9].

With `FC(F)(F)c1ccc(CNc2ccc(Cc3c[nH]c4ncc(Cl)cc34)cn2)cn1` [pexidartinib], the inhibition at 1 µM in [1] was 5.3%; in [2], 12%; in experiment [3], 88%; in experiment [4], 15%; in experiment [5] it was 8%; in experiment [6], 4%. Besides, the inhibition at 1 µM is 6.34% in experiment [7], 0.77% in [8] and 37% in experiment [9].

As for `CO[C@]1(C(=O)N[C@@H](C)c2ccc(-n3cc(F)cn3)nc2)CC[C@H](c2nc(C)cc(Nc3cc(C)[nH]n3)n2)CC1` [pralsetinib], the inhibition at 1 µM in experiment [1] is -15%; in [2] it was 5%; in experiment [3], 99%; in experiment [4] it was -0.557%; in experiment [5], 11%; in [6] it was 1.11%. In addition, the inhibition at 1 µM is 41% in experiment [7], -3.21% in [8] and 71% in experiment [9].

As to `CCn1c(=O)c(-c2cc(NC(=O)Nc3ccccc3)c(F)cc2Br)cc2cnc(NC)cc21` [ripretinib], the inhibition at 1 µM in [1] was -2.22%; in [2] it was 69%; in [3], 94%; in experiment [4] it was 0.705%; in experiment [5], -5%; in experiment [6], 0.884%. Also, the inhibition at 1 µM in experiment [7] is 11%; in experiment [8], 0.077%; in experiment [9], 17%.

As to `COc1ccc(CN2C3CC2CN(c2ccc(-c4cc(OCC(C)(C)O)cn5ncc(C#N)c45)cn2)C3)cn1` [selpercatinib], the inhibition at 1 µM was 26% in [1]; -0.264% in experiment [2]; 102% in experiment [3]; 55% in experiment [4]; 10% in [5]; -0.608% in [6]. Moreover, the inhibition at 1 µM is 54% in experiment [7], 4.42% in experiment [8] and 30% in [9].

Take `Cn1cnc2c(F)c(Nc3ccc(Br)cc3Cl)c(C(=O)NOCCO)cc21` [selumetinib]: the inhibition at 1 µM is -14% in [1]; 0.627% in [2]; 38% in [3]; -4.53% in experiment [4]; -5% in [5]; 2.47% in experiment [6]. Moreover, the inhibition at 1 µM in experiment [7] was 3.19%; in [8] it was -3.21%; in experiment [9], -8%.

Regarding `Cc1cc(Nc2ncnc3ccc(NC4=NC(C)(C)CO4)cc23)ccc1Oc1ccn2ncnc2c1` [tucatinib], the inhibition at 1 µM in [1] was -12%; in experiment [2], -1.5%; in experiment [3] it was 35%; in experiment [4], -1.54%; in experiment [5] it was -4%; in experiment [6] it was -2%. Besides, the values for the inhibition at 1 µM in experiment [7], in experiment [8] and in experiment [9] were 5%, -5.44% and 4.33%, respectively.

For the compound `C=CC(=O)N1CCC([C@@H]2CCNc3c(C(N)=O)c(-c4ccc(Oc5ccccc5)cc4)nn32)CC1` [zanubrutinib], the inhibition at 1 µM was -21% in experiment [1]; -2.7% in [2]; 16% in [3]; -1% in [4]; -2.33% in [5]; 5% in [6]. Further, the results for the inhibition at 1 µM in experiment [7], in [8] and in experiment [9] were 89%, 4.22% and 1.66%, respectively.
